Test results: ChEMBL document CHEMBL1201862, “PubChem BioAssay data set” (2004)
Blank lines part the entries; values can stand above or below the molecule they belong to. Calls of active or inactive are those of the source.

Columns and labels:
[1] = target: Intestinal-type alkaline phosphatase (Mus musculus, UniProt P24822); experiment: PubChem AID 488785; type: functional
[2] = target: T1, Alkaline phosphatase, tissue-nonspecific isozyme (Homo sapiens, UniProt P05186); experiment: TNAP enzyme inhibition by screening hits, dose response, selectivity assay for mouse IAP inhibitor project, biochemical, human TNAP, uHTS hits (AID 488906); type: functional
T1 sequence (P05186 whole entry): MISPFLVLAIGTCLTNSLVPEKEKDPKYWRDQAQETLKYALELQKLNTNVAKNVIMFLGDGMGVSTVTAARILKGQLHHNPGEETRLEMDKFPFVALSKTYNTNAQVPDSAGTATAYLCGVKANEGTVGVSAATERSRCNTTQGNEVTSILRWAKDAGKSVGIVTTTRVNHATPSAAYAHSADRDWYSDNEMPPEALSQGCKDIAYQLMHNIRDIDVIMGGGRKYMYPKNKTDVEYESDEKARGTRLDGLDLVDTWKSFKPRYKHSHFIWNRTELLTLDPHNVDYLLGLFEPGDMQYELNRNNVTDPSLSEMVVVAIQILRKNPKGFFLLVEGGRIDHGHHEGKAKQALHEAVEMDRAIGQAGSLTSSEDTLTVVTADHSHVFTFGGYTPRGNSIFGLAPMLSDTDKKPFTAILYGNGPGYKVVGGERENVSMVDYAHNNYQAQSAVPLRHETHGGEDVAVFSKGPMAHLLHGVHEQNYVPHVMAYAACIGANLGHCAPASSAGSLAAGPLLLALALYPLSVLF

[3] = target: Intestinal-type alkaline phosphatase (Homo sapiens, UniProt P09923); experiment: activation of human intestinal alkaline phosphatase – biochemical, dose response (AID 488873); type: functional
[4] = target: Albumin (Bos taurus, UniProt P02769); experiment: Counterscreen for inhibitors of T-cell receptor (TCR)-CD3 interaction: Fluorescence-based biochemical high throughput dose response assay to identify inhibitors of T-cell receptor (TCR)-CD3 interaction using a TAMRA-labeled BSA probe.; type: functional
[5] = tested on: BJ; experiment: BJ-TERT fibroblast viability loss – cell-based, RAS-independent, luminescence, dose response (AID 1933); type: functional; details: Homo sapiens
[6] = target: T2, CAAX prenyl protease 2 (Saccharomyces cerevisiae S288c, UniProt Q03530); type: biochemical
T2 sequence (Q03530 whole entry): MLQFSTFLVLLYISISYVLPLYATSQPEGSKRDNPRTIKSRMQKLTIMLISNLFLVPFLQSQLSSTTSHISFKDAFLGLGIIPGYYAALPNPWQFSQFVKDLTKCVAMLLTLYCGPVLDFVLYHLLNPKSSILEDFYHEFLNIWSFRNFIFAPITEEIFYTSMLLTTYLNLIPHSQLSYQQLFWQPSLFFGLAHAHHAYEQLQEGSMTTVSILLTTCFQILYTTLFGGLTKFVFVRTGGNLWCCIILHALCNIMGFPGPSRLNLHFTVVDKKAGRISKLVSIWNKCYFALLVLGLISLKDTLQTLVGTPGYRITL

[7] = DRD fibroblast viability loss – cell-based, non-viral oncogenic, luminescence, dose response (AID 1934); type: functional; details: Homo sapiens
[8] = tested on: BJ; experiment: BJ-TERT-LT-ST fibroblast viability loss – cell-based, RAS-independent, luminescence, dose response (AID 1935); type: functional; details: Homo sapiens;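 note: BJ fibroblasts immortalized with TERT plus LT and ST oncogenes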
[9] = tested on: BJ; experiment: cells; type: functional, cell-based; details: Homo sapiens
[10] = toxicity toward cultured mammalian cells – cell-based, plate reader, cherry-pick samples, cytotoxicity control, dose response (AID 504397); type: functional
[11] = target: CAAX prenyl protease 2 (Homo sapiens, UniProt Q9Y256); experiment: inhibition of Ras-converting CAAX protease Rce1 – biochemical, yeast membranes, quenched-peptide fluorescence, cherry-pick, dose response (AID 588849)
[12] = target: T3, Tyrosine-protein phosphatase non-receptor type 7 (Homo sapiens, UniProt P35236); type: functional
T3 sequence (P35236 whole entry): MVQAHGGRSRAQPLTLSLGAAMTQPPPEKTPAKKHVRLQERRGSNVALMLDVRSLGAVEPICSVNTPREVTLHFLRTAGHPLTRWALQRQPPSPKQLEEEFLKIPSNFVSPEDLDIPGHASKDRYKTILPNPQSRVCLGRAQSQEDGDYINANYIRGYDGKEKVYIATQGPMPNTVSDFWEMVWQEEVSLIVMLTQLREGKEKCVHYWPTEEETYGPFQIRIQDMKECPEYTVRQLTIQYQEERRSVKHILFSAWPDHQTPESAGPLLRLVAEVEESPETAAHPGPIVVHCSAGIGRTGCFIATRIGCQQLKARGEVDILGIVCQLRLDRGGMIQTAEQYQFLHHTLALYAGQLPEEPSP

[13] = target: T4, Tyrosine-protein phosphatase non-receptor type 22 (Homo sapiens, UniProt Q9Y2R2); type: functional
T4 sequence (Q9Y2R2 whole entry): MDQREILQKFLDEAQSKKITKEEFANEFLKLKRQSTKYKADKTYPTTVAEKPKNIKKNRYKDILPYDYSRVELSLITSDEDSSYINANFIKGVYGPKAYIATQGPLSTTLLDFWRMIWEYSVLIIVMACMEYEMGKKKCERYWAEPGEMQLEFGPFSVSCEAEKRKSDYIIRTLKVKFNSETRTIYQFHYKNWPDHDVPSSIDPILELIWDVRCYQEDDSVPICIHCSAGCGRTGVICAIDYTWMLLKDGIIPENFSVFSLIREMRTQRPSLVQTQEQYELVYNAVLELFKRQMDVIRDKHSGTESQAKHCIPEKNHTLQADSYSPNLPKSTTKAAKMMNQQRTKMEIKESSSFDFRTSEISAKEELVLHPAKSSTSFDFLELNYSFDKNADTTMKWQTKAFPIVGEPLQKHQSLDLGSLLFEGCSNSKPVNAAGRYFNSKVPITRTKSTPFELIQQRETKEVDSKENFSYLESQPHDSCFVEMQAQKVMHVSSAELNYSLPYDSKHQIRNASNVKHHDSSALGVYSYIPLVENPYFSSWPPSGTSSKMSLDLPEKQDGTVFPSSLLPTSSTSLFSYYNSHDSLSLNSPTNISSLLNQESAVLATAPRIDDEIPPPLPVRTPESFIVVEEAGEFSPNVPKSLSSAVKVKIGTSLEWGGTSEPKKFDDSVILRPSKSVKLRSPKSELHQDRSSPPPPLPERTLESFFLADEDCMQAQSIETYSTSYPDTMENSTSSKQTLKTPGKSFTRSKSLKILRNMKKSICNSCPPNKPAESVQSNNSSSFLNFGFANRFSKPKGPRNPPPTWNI

[14] = target: T4, Tyrosine-protein phosphatase non-receptor type 22; type: functional; remark: listed apart in the source
[15] = target: T5, Cannabinoid receptor 2 (Homo sapiens, UniProt P34972); experiment: SAR analysis of antagonists of the Cannabinoid Receptor 2 using an Image-Based Assay. [Related pubchem assays (depositor defined):AID2013, AID2026]; type: functional
[16] = target: T6, Cannabinoid receptor 1 (Homo sapiens, UniProt P21554); experiment: SAR analysis of antagonists of the Cannabinoid Receptor 1 using an Image-Based Assay - Set 2. [Related pubchem assays (depositor defined):AID2013, AID2026]; type: functional
[17] = target: T7, G-protein coupled receptor 35 (Homo sapiens, UniProt Q9HC97); experiment: SAR analysis of Agonists of the GPR35 Receptor using an Image-Based Assay - Set 2. [Related pubchem assays (depositor defined):AID2013, AID2026]; type: functional
[18] = target: T6, Cannabinoid receptor 1; experiment: SAR analysis of agonists of the Cannabinoid Receptor 1 using an Image-Based Assay - Set 2. [Related pubchem assays (depositor defined):AID2013, AID2026]; type: functional
[19] = target: T7, G-protein coupled receptor 35; experiment: SAR analysis of Antagonists of the GPR35 Receptor using an Image-Based Assay - Set 3. [Related pubchem assays (depositor defined):AID2013, AID2026]; type: functional
[20] = target: T5, Cannabinoid receptor 2; experiment: SAR analysis of agonists of the Cannabinoid Receptor 2 using an Image-Based Assay. [Related pubchem assays (depositor defined):AID2013, AID2026]; type: functional
[21] = target: G-protein coupled receptor 55 (Homo sapiens, UniProt Q9Y2T6); experiment: inhibition of LPI-stimulated GPR55 beta-arrestin translocation – imaging, U2OS, beta-arrestin-GFP, LPI agonist, primary screen (AID 2013); type: functional;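 note: antagonist potency measured as reduced agonist-driven arrestin aggregation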
[22] = Luminescence Cell-Based Dose Retest to Confirm Inhibitors of Cancer Stem Cells. [Related pubchem assays (depositor defined):AID2717, AID2721]; type: functional; details: Homo sapiens
[23] = target: Hexokinase-1 (Homo sapiens, UniProt P19367); experiment: HK1 enzyme activation by HKDC1 hits – biochemical, selectivity assay for HKDC1 activator project, dose response (AID 504762); type: functional
[24] = target: Beta Lactamase (Pseudomonas aeruginosa, UniProt Q932Y6); experiment: BLA reporter interference, concentration series – BLA reporter cells, FRET fluorescence, artefact control for NOD2-RIPK2 interaction inhibitor project, dose response (AID 651552); type: functional, cell-based
[25] = target: Heat shock protein HSP 90-alpha (Homo sapiens, UniProt P07900); type: functional, organism-based
[26] = Fluorescence-based cell-based high throughput dose response assay for inhibitors of the interaction of nucleotide-binding oligomerization domain containing 2 (NOD2) and the receptor-interacting serine-threonine kinase 2 (RIPK2).; type: functional; details: Homo sapiens
[27] = target: C-C chemokine receptor type 6 (Homo sapiens, UniProt P51684); experiment: antagonism of CCR6 beta-arrestin recruitment – cell-based, luminescent beta-arrestin readout, dose response (AID 504728); type: functional
[28] = target: Beta-galactosidase (Escherichia coli, UniProt Q8VNN2); experiment: detection-enzyme interference by beta-gal modulators – biochemical, E. coli enzyme, set 3, artefact control for CCR6 antagonist project, dose response (AID 504712); type: functional
[29] = target: Glucose-6-phosphate 1-dehydrogenase (Homo sapiens, UniProt P11413); experiment: inhibition of Homo sapiens G6PD, dose series – biochemical, fluorescence, selectivity assay for P. falciparum G6PD inhibitor project, dose response (AID 504792); type: functional
[30] = target: T8, Hexokinase HKDC1 (Homo sapiens, UniProt Q2TB90); experiment: activation of HKDC1 glucose phosphorylation – biochemical, W721R variant, dose response (AID 504730); type: functional
T8 sequence (Q2TB90 whole entry): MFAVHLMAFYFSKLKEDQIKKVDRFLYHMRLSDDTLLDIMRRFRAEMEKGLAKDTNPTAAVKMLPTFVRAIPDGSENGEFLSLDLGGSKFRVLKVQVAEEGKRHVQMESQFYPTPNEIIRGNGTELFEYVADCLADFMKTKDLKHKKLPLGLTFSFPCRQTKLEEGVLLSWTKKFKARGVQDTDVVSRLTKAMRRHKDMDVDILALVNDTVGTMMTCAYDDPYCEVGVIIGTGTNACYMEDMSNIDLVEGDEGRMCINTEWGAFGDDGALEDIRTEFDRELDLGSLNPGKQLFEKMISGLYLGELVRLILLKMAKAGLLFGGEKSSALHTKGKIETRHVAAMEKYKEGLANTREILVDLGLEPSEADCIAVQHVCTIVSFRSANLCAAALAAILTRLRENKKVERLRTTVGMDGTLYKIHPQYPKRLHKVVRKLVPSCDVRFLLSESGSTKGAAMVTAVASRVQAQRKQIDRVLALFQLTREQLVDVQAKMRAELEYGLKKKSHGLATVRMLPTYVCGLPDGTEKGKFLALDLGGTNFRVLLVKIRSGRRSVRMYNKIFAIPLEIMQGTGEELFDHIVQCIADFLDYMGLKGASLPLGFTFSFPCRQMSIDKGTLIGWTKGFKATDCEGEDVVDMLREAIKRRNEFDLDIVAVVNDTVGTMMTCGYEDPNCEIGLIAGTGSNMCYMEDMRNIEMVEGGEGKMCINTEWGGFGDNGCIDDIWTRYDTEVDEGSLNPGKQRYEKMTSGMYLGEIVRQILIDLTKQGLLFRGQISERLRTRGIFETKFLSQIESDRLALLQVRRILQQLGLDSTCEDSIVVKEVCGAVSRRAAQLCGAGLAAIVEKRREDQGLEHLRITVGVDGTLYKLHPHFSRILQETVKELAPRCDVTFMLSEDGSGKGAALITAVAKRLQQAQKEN

[31] = target: Peroxisome proliferator-activated receptor alpha (Homo sapiens, UniProt Q07869); experiment: Late stage assay provider counterscreen for partial agonists of the peroxisome proliferator-activated receptor gamma (PPARg): Luminescence-based cell-based dose response assay for partial agonists of the peroxisome proliferator-activated receptor alpha (PPARA). [Related pubchem assays (depositor defined):AID1051, AID1300, AID1319, AID1679, AID1808, AID504446, AID504447, AID504452, AID504453, AID631]; type: functional
[32] = target: Peroxisome proliferator-activated receptor gamma (Homo sapiens, UniProt P37231); experiment: PPARg transcriptional activation, reporter cells – cell-based, luminescence, assay provider, dose response (AID 504447); type: functional

T6 sequence (P21554 whole entry): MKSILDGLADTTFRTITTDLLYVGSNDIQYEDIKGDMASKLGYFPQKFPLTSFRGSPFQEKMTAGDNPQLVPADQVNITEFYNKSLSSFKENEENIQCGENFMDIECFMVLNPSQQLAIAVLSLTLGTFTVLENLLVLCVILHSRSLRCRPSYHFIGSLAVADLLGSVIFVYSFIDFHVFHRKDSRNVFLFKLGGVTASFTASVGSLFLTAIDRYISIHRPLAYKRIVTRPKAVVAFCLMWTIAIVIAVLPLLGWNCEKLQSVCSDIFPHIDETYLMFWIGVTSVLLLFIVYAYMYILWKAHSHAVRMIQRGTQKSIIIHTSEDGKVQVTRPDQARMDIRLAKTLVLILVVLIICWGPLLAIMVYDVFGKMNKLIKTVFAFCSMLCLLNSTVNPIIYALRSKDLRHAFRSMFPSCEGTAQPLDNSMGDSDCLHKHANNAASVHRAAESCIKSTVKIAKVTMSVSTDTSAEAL
T7 sequence (Q9HC97 whole entry): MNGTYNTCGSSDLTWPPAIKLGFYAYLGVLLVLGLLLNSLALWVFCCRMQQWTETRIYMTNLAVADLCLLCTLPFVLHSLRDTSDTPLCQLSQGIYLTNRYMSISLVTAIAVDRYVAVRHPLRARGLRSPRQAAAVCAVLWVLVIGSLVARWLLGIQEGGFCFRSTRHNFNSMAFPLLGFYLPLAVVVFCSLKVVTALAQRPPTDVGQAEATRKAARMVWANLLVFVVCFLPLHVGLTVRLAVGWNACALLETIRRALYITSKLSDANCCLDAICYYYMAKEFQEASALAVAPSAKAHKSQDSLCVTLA
T5 sequence (P34972 whole entry): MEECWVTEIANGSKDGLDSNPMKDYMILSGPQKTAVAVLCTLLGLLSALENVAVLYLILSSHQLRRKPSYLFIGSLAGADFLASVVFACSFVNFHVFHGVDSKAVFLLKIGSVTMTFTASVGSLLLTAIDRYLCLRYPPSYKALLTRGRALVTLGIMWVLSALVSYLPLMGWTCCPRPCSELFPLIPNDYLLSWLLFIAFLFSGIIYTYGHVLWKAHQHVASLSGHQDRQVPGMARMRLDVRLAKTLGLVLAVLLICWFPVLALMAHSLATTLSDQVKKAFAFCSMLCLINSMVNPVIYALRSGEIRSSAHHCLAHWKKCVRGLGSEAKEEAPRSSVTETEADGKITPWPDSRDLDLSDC
Sequence of G-protein coupled receptor 55 (Q9Y2T6 whole entry): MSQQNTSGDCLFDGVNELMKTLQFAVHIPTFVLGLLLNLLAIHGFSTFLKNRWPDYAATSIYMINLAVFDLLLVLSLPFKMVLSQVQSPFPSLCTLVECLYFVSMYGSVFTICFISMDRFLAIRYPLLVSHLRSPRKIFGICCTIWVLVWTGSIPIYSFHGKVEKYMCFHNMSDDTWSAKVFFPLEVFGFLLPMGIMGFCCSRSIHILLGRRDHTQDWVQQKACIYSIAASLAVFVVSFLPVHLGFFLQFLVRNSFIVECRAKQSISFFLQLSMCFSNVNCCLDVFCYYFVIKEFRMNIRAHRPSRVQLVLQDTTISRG
Sequence of Glucose-6-phosphate 1-dehydrogenase (P11413 whole entry): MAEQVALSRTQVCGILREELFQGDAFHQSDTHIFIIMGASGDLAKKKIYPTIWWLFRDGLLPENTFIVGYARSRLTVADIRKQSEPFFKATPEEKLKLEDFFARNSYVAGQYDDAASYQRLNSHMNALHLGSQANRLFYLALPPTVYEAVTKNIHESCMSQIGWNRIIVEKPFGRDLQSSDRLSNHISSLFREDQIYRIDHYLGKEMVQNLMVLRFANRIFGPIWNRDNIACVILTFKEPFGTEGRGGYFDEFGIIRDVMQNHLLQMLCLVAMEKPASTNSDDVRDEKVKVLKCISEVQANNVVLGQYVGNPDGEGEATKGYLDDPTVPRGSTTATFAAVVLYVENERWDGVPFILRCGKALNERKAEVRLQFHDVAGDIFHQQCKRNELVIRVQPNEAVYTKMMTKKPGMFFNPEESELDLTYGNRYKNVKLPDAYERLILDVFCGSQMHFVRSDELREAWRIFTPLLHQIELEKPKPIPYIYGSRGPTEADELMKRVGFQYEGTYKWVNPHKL
Sequence of Intestinal-type alkaline phosphatase (Mus musculus, UniProt P24822) (P24822 whole entry): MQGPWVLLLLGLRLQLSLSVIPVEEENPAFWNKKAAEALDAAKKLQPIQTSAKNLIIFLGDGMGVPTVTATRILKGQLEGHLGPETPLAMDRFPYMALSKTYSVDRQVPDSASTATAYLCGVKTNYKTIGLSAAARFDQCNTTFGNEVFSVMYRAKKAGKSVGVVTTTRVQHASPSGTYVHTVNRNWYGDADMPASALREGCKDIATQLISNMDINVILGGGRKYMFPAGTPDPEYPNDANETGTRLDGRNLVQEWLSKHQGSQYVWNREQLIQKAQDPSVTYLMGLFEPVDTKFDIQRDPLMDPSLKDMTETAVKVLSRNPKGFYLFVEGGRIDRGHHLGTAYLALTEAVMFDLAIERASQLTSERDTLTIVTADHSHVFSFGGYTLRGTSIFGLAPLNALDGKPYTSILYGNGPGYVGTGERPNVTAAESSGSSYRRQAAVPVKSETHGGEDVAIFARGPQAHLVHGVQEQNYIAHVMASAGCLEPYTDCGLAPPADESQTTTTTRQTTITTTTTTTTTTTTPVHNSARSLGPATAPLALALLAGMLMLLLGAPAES
Sequence of C-C chemokine receptor type 6 (P51684 whole entry): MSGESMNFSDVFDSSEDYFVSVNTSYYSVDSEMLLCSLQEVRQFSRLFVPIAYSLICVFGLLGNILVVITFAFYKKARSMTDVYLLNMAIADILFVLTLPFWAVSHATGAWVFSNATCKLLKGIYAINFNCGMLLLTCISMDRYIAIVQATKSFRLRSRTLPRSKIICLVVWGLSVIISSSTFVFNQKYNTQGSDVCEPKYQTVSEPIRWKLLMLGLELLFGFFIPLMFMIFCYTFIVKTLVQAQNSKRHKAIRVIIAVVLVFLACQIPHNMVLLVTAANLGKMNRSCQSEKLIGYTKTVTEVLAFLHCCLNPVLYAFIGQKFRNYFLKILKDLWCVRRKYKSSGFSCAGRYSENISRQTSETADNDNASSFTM
Sequence of Peroxisome proliferator-activated receptor alpha (Q07869 whole entry): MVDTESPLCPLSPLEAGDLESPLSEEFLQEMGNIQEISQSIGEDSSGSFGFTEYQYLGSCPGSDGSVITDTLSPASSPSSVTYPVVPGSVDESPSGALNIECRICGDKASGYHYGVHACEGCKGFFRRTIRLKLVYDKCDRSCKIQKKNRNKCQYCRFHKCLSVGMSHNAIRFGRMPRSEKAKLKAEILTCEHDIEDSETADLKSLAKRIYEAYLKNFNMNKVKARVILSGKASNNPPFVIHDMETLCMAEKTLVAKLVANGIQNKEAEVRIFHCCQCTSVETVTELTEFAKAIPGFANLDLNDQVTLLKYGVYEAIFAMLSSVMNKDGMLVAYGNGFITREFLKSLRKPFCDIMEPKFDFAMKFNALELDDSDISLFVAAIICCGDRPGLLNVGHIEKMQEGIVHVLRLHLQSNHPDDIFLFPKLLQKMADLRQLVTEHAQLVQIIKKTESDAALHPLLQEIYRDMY
Sequence of Beta Lactamase (Q932Y6 whole entry): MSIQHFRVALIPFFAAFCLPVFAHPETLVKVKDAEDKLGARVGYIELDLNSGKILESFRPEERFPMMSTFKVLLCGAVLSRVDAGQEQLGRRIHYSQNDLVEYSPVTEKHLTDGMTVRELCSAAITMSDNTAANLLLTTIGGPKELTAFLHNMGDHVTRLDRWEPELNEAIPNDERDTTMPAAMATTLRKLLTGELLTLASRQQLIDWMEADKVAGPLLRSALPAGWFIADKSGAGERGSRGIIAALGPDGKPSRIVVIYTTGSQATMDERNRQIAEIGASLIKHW
Sequence of Hexokinase-1 (P19367 whole entry): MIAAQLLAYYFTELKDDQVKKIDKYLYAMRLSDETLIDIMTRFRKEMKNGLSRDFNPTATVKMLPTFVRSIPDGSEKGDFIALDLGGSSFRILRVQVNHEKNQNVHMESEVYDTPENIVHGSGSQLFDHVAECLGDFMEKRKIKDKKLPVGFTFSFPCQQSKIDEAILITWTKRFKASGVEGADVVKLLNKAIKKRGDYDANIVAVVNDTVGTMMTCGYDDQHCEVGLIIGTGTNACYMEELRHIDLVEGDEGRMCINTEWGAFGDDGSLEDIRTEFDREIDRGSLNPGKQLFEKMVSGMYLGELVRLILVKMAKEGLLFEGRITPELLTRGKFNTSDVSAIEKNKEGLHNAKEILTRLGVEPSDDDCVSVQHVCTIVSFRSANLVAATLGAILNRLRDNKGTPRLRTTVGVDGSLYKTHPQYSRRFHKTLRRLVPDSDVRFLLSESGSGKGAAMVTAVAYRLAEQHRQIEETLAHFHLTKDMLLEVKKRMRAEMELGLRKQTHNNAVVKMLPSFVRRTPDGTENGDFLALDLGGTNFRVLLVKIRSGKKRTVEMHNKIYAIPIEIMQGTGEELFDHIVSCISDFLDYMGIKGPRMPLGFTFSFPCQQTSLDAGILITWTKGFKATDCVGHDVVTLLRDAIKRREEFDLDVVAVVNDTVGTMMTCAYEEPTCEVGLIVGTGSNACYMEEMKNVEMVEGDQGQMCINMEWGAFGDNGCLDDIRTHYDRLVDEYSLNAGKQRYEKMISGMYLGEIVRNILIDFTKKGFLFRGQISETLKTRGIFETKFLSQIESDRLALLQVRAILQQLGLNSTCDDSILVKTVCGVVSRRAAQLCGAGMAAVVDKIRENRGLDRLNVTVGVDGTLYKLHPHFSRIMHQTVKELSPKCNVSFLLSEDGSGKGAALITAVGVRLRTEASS
Sequence of CAAX prenyl protease 2 (Homo sapiens, UniProt Q9Y256) (Q9Y256 whole entry): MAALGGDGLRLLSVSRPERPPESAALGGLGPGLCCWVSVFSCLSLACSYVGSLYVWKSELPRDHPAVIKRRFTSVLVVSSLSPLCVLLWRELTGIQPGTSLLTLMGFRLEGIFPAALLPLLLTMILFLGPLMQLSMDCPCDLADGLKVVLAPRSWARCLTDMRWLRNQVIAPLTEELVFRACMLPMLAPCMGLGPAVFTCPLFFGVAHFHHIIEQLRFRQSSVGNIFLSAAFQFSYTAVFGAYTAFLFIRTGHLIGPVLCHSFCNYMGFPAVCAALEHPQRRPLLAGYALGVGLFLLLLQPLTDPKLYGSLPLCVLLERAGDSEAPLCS

- IC50 [1]: 11.9 µM (active)
- IC50 [2]: > 100 µM (inactive)
- EC50 [3]: > 100 µM (inactive)
- IC50 [4]: > 94 µM (inactive)
Compound: O=C(NNC(=S)NC(=O)c1cccs1)c1ccc(O)cc1

Compound: O=C1C(=O)N(C/C=C/c2ccccc2)c2ccccc21
- EC50 [5]: 8.22 µM (inconclusive)
- AC50 [6]: 1.92 µM (active)
- EC50 [7]: 39.8 µM (active)
- EC50 [8]: 14.9 µM (active)
- EC50 [9]: > 150 µM (not active)
- AC50 [10]: 64.6 µM (active)
- AC50 [11]: 5.17 µM (active)

- IC50 [12]: > 79.4 µM (inactive)
- IC50 [13]: > 79.4 µM (inactive)
- IC50 [14]: > 79.4 µM (inactive)
Compound: CC(C)n1c(C(=O)OCC(=O)NCc2ccc3c(c2)OCO3)cc2occc21

Compound: Cc1cc(OCC(=O)Nc2ccc(S(=O)(=O)NC3=NCCCCC3)cc2)c(C(C)C)cc1Cl
- IC50 [15]: > 32 µM (inactive)
- IC50 [16]: 3.16 µM (active)
- EC50 [17]: > 32 µM (inactive)
- EC50 [18]: > 32 µM (inactive)
- IC50 [19]: > 32 µM (inactive)
- EC50 [20]: > 32 µM (inactive)
- IC50 [21]: 1.08 µM (active)
- AC50 [22]: 6.13 µM (active)

Compound: COC(=O)C1=C(C(=O)OC)SC2(S1)C(C(=O)OC)=C(C(=O)OC)Sc1c2ssc1=O
- EC50 [23]: 49.6 µM (inactive)
- IC50 [24]: 14.1 µM (inactive)
- AC50 [25]: 4.21 µM (active)
- IC50 [26]: 0.727 µM (active)
- IC50 [27]: 28.5 µM (inactive)
- IC50 [28]: > 66.6 µM (inactive)
- IC50 [29]: > 80 µM (inactive)
- EC50 [30]: 33.1 µM (inactive)

- EC50 [31]: > 3 µM (inactive)
- EC50 [32]: 2.6 µM (active)
Compound: CCOc1cccc(/C=C2/SC(=S)N(CCC(=O)O)C2=O)c1
